How the values were obtained:
Type in all cases: in vivo
Avena fatua (AVEFA) = experiment: Test 1B glasshouse assay, post-emergence herbicidal activity against grassy weeds; conditions: 14 DAA
Summary of the method: (§1)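 Unformulated compound was dissolved as a 50 g/L emulsifiable IF50, then diluted in 0.5% v/v Adigor to spray plants 14 days after sowing. Usual rates were 60 g/ha with or without, or 90 and 120 g/ha with, 50 g/ha cloquintocet-mexyl. Visual % phytotoxicity at 14 DAA, mean of two replicates.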

Setaria viridis (SETVI) = experiment: as above; conditions: 14 DAA
Summary of the method: as §1

[1] = system: Lolium multiflorum (LOLMU); experiment: as above; conditions: 14 DAA
Summary of the method: as §1

Poa annua (POAAN) = experiment: as above; conditions: 14 DAA
Summary of the method: as §1

[2] = system: Alopecurus myosuroides (ALOMY); experiment: as above; conditions: 14 DAA
Summary of the method: as §1

[3] = system: grassy monocotyledonous weeds; experiment: Test 1B glasshouse assay, post-emergence, comparison of separated enantiomers, weeds overall; conditions: chiral-column-separated enantiomers, A98 vs A99 and A100 vs A101, Biological Example 1B
Procedure: Biological Example 1B tests the herbicidal activity of“technical” compounds (i.e. compounds not previously formulated before the test), as the herbicides under test.
An “instant formulation”, known as the “IF50”, containing 50 g/liter (i.e. 5% w/v) of the “technical” (i.e. unformulated) active ingredient (i.e. the herbicide under test), is prepared by dissolving the active ingredient in a mixture of organic solvents and emulsifier, details of which are provided in the Table below. […]
The test plants are then grown on under controlled conditions in the glasshouse (at 22/16° C., day/night; 16 hours light; 65% humidity) and are watered twice daily. 14 days after application of the test herbicide, the test is evaluated visually for percentage phytotoxicity to the plant (where 100%=total damage to plant; 0%=no damage to plant). […]
Herbicidal activity (phytotoxicity) is evaluated visually, and an assessed percentage phytotoxicity score is given for each herbicidal application on each plant species (with 100%=total damage to plant; 0%=no damage to plant; the assessment is recorded in increments of 1%). […]

[4] = system: Spring Barley “Harrington”; experiment: Test 1B glasshouse assay, post-emergence herbicidal activity against cereal crops; conditions: 14 DAA
Summary of the method: (§2)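 Visual percentage damage (100% = total, 0% = none) read 14 days after application, averaged over two replicates. Plants grown 14 days at 22/16 °C day/night before post-emergence spraying of unformulated compound (IF50/acetone, 0.5% v/v Adigor). Rates usually 60–120 g/ha; cloquintocet-mexyl 50 g/ha co-applied where stated.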

Winter Barley “Suzuka” = experiment: as above; conditions: 14 DAA
Summary of the method: as §2

Winter Wheat “Hereward” = experiment: as above; conditions: 14 DAA
Summary of the method: as §2

Spring Wheat “Teal” = experiment: as above; conditions: 14 DAA
Summary of the method: as §2

[5] = 60 g/ha herbicide, 0 g/ha cloquintocet-mexyl, test result no. 1 (T1)
[6] = 60 g/ha herbicide, 50 g/ha cloquintocet-mexyl, test result no. 1 (T1)
[7] = 60 g/ha herbicide, 50 g/ha cloquintocet-mexyl, test result no. 2 (T2)
[8] = 90 g/ha herbicide, 50 g/ha cloquintocet-mexyl, test result no. 2 (T2)
[9] = 120 g/ha herbicide, 50 g/ha cloquintocet-mexyl, test result no. 2 (T2)

Structure (SMILES): Cc1cc(-n2cc(Cl)cn2)cc(C)c1C1C(=O)C[C@@H](CCNC(=O)c2ccccn2)C1=O (stereo partly drawn) [Compound A98, N-[2-[(1R)-3-[4-(4-chloropyrazol-1-yl)-2,6-dimethyl-phenyl]-2,4-dioxo-cyclopentyl]ethyl]pyridine-2-carboxamide]
- Post-emergence herbicidal activity, percentage phytotoxicity, AVEFA (Avena fatua (AVEFA); [5]): 100 (T1) %
- Post-emergence herbicidal activity, percentage phytotoxicity, AVEFA (Avena fatua (AVEFA); [6]): 100 (T1); %
- Post-emergence herbicidal activity, percentage phytotoxicity, AVEFA (Avena fatua (AVEFA); [7]): 100 (T2) %
- Post-emergence herbicidal activity, percentage phytotoxicity, AVEFA (Avena fatua (AVEFA); [8]): 100 (T2) %
- Post-emergence herbicidal activity, percentage phytotoxicity, AVEFA (Avena fatua (AVEFA); [9]): 100 (T2) %
- Post-emergence herbicidal activity, percentage phytotoxicity, SETVI (Setaria viridis (SETVI); [5]): 94 (T1) %
- Post-emergence herbicidal activity, percentage phytotoxicity, SETVI (Setaria viridis (SETVI); [6]): 97 (T1); %
- Post-emergence herbicidal activity, percentage phytotoxicity, SETVI (Setaria viridis (SETVI); [7]): 100 (T2) %
- Post-emergence herbicidal activity, percentage phytotoxicity, SETVI (Setaria viridis (SETVI); [8]): 100 (T2) %
- Post-emergence herbicidal activity, percentage phytotoxicity, SETVI (Setaria viridis (SETVI); [9]): 100 (T2) %
- Post-emergence herbicidal activity, percentage phytotoxicity, LOLMU [1, 5]: 95 (T1) %
- Post-emergence herbicidal activity, percentage phytotoxicity, LOLMU [1, 6]: 95 (T1); %
- Post-emergence herbicidal activity, percentage phytotoxicity, LOLMU [1, 7]: 100 (T2) %
- Post-emergence herbicidal activity, percentage phytotoxicity, LOLMU [1, 8]: 100 (T2) %
- Post-emergence herbicidal activity, percentage phytotoxicity, LOLMU [1, 9]: 100 (T2) %
- Post-emergence herbicidal activity, percentage phytotoxicity, POAAN (Poa annua (POAAN); [5]): 78 (T1) %
- Post-emergence herbicidal activity, percentage phytotoxicity, POAAN (Poa annua (POAAN); [6]): 75 (T1); %
- Post-emergence herbicidal activity, percentage phytotoxicity, POAAN (Poa annua (POAAN); [7]): 75 (T2) %
- Post-emergence herbicidal activity, percentage phytotoxicity, POAAN (Poa annua (POAAN); [8]): 78 (T2) %
- Post-emergence herbicidal activity, percentage phytotoxicity, POAAN (Poa annua (POAAN); [9]): 83 (T2) %
- Post-emergence herbicidal activity, percentage phytotoxicity, ALOMY [2, 5]: 80 (T1) %
- Post-emergence herbicidal activity, percentage phytotoxicity, ALOMY [2, 6]: 80 (T1); %
- Post-emergence herbicidal activity, percentage phytotoxicity, ALOMY [2, 7]: 78 (T2) %
- Post-emergence herbicidal activity, percentage phytotoxicity, ALOMY [2, 8]: 88 (T2) %
- Post-emergence herbicidal activity, percentage phytotoxicity, ALOMY [2, 9]: 97 (T2) %
- herbicidal activity against grassy monocotyledonous weeds compared with the compound of opposite stereochemistry [3]: more potent herbicidal activity
- Post-emergence herbicidal activity against cereal crops, percentage phytotoxicity, Spring Barley “Harrington” [4, 5]: 33 (T1) %
- Post-emergence herbicidal activity against cereal crops, percentage phytotoxicity, Spring Barley “Harrington” [4, 6]: 10 (T1); %
- Post-emergence herbicidal activity against cereal crops, percentage phytotoxicity, Spring Barley “Harrington” [4, 7]: 4 (T2) %
- Post-emergence herbicidal activity against cereal crops, percentage phytotoxicity, Spring Barley “Harrington” [4, 8]: 5 (T2) %
- Post-emergence herbicidal activity against cereal crops, percentage phytotoxicity, Spring Barley “Harrington” [4, 9]: 15 (T2) %
- Post-emergence herbicidal activity against cereal crops, percentage phytotoxicity, Winter Barley “Suzuka” (Winter Barley “Suzuka”; [5]): 75 (T1) %
- Post-emergence herbicidal activity against cereal crops, percentage phytotoxicity, Winter Barley “Suzuka” (Winter Barley “Suzuka”; [6]): 13 (T1); %
- Post-emergence herbicidal activity against cereal crops, percentage phytotoxicity, Winter Barley “Suzuka” (Winter Barley “Suzuka”; [7]): 8 (T2) %
- Post-emergence herbicidal activity against cereal crops, percentage phytotoxicity, Winter Barley “Suzuka” (Winter Barley “Suzuka”; [8]): 9 (T2) %
- Post-emergence herbicidal activity against cereal crops, percentage phytotoxicity, Winter Barley “Suzuka” (Winter Barley “Suzuka”; [9]): 40 (T2) %
- Post-emergence herbicidal activity against cereal crops, percentage phytotoxicity, Winter Wheat “Hereward” (Winter Wheat “Hereward”; [5]): 35 (T1) %
- Post-emergence herbicidal activity against cereal crops, percentage phytotoxicity, Winter Wheat “Hereward” (Winter Wheat “Hereward”; [6]): 13 (T1); %
- Post-emergence herbicidal activity against cereal crops, percentage phytotoxicity, Winter Wheat “Hereward” (Winter Wheat “Hereward”; [7]): 9 (T2) %
- Post-emergence herbicidal activity against cereal crops, percentage phytotoxicity, Winter Wheat “Hereward” (Winter Wheat “Hereward”; [8]): 13 (T2) %
- Post-emergence herbicidal activity against cereal crops, percentage phytotoxicity, Winter Wheat “Hereward” (Winter Wheat “Hereward”; [9]): 23 (T2) %
- Post-emergence herbicidal activity against cereal crops, percentage phytotoxicity, Spring Wheat “Teal” (Spring Wheat “Teal”; [5]): 30 (T1) %
- Post-emergence herbicidal activity against cereal crops, percentage phytotoxicity, Spring Wheat “Teal” (Spring Wheat “Teal”; [6]): 10 (T1); %
- Post-emergence herbicidal activity against cereal crops, percentage phytotoxicity, Spring Wheat “Teal” (Spring Wheat “Teal”; [7]): 5 (T2) %
- Post-emergence herbicidal activity against cereal crops, percentage phytotoxicity, Spring Wheat “Teal” (Spring Wheat “Teal”; [8]): 13 (T2) %
- Post-emergence herbicidal activity against cereal crops, percentage phytotoxicity, Spring Wheat “Teal” (Spring Wheat “Teal”; [9]): 20 (T2) %
